According to BindingDB's records for doi:10.1016/j.bmcl.2010.09.009 (Merck Research Laboratories, 2010):

Experiment: Inhibition of PAR1-mediated aggregation of TRAP-stimulated human platelet

IC50: 0.18 µM
SMILES: CCOC(=O)N[C@@H]1CC[C@@H]2[C@@H](C1)C[C@H]1C(=O)O[C@H](C)[C@H]1[C@H]2C=Cc1ccc(-c2ccccn2)cn1 [ethyl(1R,3aR,4aR,6R,8aR,9S,9aS)-9-((E)-2-(2,3'-bipyridin-6'-yl)vinyl)-1-methyl-3-oxododecahydronaphtho[2,3-c]furan-6-ylcarbamate]
